We go through one molecule from patent US20200345689A1, “METHODS AND CO[…] RRx-001 FOR RADIOPROTECTION” (EpicentRx, Inc., priority 2018, published 2020).

In assay [1] the test system is male Syrian Golden Hamsters. Briefly: Oral mucositis induced by acute radiation in hamsters. The class given is in vivo. The protocol: In this example, the ability of RRx-001 to treat oral mucositis induced by acute radiation was assess in hamsters.
Fifty-six (56) male Syrian Golden Hamsters were used in the study. Mucositis was induced by administering an acute radiation dose of 40 Gy directed to the left buccal cheek pouch on Day 0 at a rate of 2-2.5 Gy/min. Mucositis was evaluated clinically starting on Day 6 and continuing on alternate days until Day 28. Hamsters reaching a mucositis severity score of 4 or higher received buprenorphine (0.5 mg/kg) SC twice a day for 48 hours or until score dropped below 4.
Dosing was scheduled as follows: for animals in Groups 1-4, animals were dosed with RRx-001 (1, 3, or 10 mg/kg) or vehicle (1:2 DMA:PEG400 vol:vol ratio) once a day (QD) on Days −4, −1, 1, 4, 7, 11, 14, 18, 21, and 25 via intraperitoneal (IP) administration; animals in Groups 5-7 were dosed QD with RRx-001 (1, 3, or 10 mg/kg) on Days −4, −1, 1, 8, 15, and 22.
The significance of differences observed between the control and treatment group was evaluated by comparing the days with mucositis scores≥3 and <3 between groups using chi-square analysis. […] The percentage of animal days with a score of ≥3 in the Vehicle Group was 57.29%. […] There were numerous days where animals dosed with RRx-001 had percent ulceration days that were lower (which can be interpreted as ameliorative of disease severity) in comparison to vehicle-dosed animals.
An analysis of the severity of mucositis was performed using the Mann-Whitney rank sum analysis to compare the visual mucositis scores for the treatment group to the Vehicle control group on each day of evaluation. In this analysis, 2 days of significant reduction in the mucositis score are generally required before it is regarded as meaningful.

Assay [2] concerns SOD1 and 2. Briefly: Western blot of ARE protein expression in hMSC: SOD1 and 2. The class given is cell-based, human. The note with it: 5 mM RRx-001 for 16 hours, 8 hours after 10 Gy irradiation. The protocol:
Antioxidant response element (ARE) genes such as heme oxygenase 1 (HO-1), NAD(P)H Dehydrogenase [Quinone] 1 (NQO-1) and Superoxide Dismutase (SOD) are involved in the detoxification and elimination of reactive oxidants.
Expression of ARE proteins was assayed in hMSC, macrophages, and monocytes following in vitro irradiation of the cells, which were pretreated with RRx-001 or vehicle. Protein expression was assayed by Western blotting and protein quantification.
hMSC were treated for 16 hours with […] RRx-001 or the vehicle control (0.05% DMSO), irradiated at 10 Gy or sham-irradiated and the protein collected 8 or 24 hours post-sham or irradiation. Human monocytic leukemic THP-1 and U937 cells were differentiated into macrophages with 50 nM Phorbol 12-myristate 13-acetate (PMA) for 24 hours before treatment. Differentiated and non-differentiated cells were treated with […] RRx-001 or 0.05% DMSO (vehicle control) for 16 hours prior to radiation. The cells were irradiated at 5 Gy or sham-irradiated and collected 4-8 hours later for both analysis. For each experiment, duplicates of each sample were run.
In general terms: A western blot detects proteins with antibodies after separation by electrophoresis.

Assay [3] deals with bone marrow. Description: Histopathology of sternal bone marrow (cellularity grade, megakaryocytes) after sublethal TBI or sham irradiation. The assay is classed as in vivo, mice. The protocol: To determine the pathophysiological effects of RRx-001 on hematopoietic protection in mice, CD2F1 male mice were treated with 10 mg/kg RRx-001 or the vehicle control 24 hours prior to a sublethal dose of TBI (7 Gy at 0.6 Gy/min using High-level Cobalt-60) or sham irradiation (day 0) according to the table below.
CD2F1 male mice (n=3/group) were divided into 4 experimental groups: 1) irradiation+vehicle, 2) irradiation+RRx-001, 3) sham-irradiation+vehicle and 4) sham-irradiation+RRx-001. Either 10 mg/kg RRx-001 or the vehicle control were IP injected 24 hours prior to either irradiation or sham-irradiation (day 0). On days 2, 7, 14, 21, and 28 post-irradiation (day 0) mice were humanely euthanized. Blood, bone marrow, and sternebrae were then collected. This experiment was performed in duplicate for a total of n=6 mice/group/time point.
Sternebrae from euthanized mice (n=6/group/time point) were collected on days 2, 7, 14, 21 and 28 post-irradiation. Sternebrae were fixed in 10% zinc-buffered formalin for at least 24 hours and up to 7 days. Fixed sternebrae were decalcified for 3 hr in 12-18% sodium EDTA (pH 7.4-7.5) and specimens dehydrated using graded ethanol concentrations and embedded in paraffin. Longitudinal 4μm sections were stained with regular hematoxylin and eosin. Two board-certified pathologist conducted histopathological evaluation of the samples. One of the pathologist scored all the samples blindly. Bone marrow was evaluated in situ within sternebrae and graded (Grade 1: <10%; Grade 2: 11-30%; Grade 3: 31-60%; Grade 4: 61-89%; Grade 5: >90%) for total cellularity. Megakaryocytes were also quantified based on the average per 10 high power fields (HPF) at 400× magnification using a BX43 or BX53 microscope (Olympus, Minneapolis, Minn.). Images were captured with an Olympus DP22 camera and imported into Olympus Cellsens Standard software for review.
Blood parameters were compared between treatment groups using an analysis of variance (ANOVA). The Wilcoxon test was also used for sensitivity and to potentially address data departures from normality. A longitudinal mixed model repeated measures was also implemented to provide a more complete data analysis of the sham-irradiated treatment groups' difference in overall time profile mean based on the blood parameters. Bone marrow data (megakaryocytes and grade) statistical analysis was carried out using a parametric test consisting of a general linear model analysis of variance (ANOVA with factors consisting of treatment group and pathologist) and the Kruskal-Wallis nonparametric test. The statistical data analysis was carried out using R software (Version 3.4.3, 2016) and the graphs made using GraphPad Prism version 7.03 (GraphPad Software, La Jolla, Calif.).
To determine the effect of RRx-001 on bone marrow, a histopathological analysis of bone marrow sternebrae was performed and the cellularity, as reported by grade (grade 1: <10%; grade 2: 11-30%; grade 3: 31-60%; grade 4: 61-89%; grade 5: >90% cellularity), and megakaryocyte numbers (averaged per 10 high-powered fields; HPF) were ascertained by two pathologists, one of which scored all the samples blindly (TAS, WEC).

Assay [4] deals with superoxide dismutase. Briefly: Superoxide dismutase activity assay in hMSC. The assay is classed as cell-based, human. The note with it: 5 mM RRx-001 for 16 hours, 8 hours after 10 Gy irradiation. On the procedure:
The activity of superoxide dismutase activity was also assayed in hMSC. hMSC were treated for 16 hours with […] RRx-001 or vehicle, irradiated at 10 Gy or sham-irradiated and whole cell homogenate collected according to the manufacture's protocol. The assay measures the activity of all three forms of SOD. The amount of SOD activity (U/mL) was normalized to protein levels.

Each structure is given as a SMILES string.

Turning to `O=C(CBr)N1CC([N+](=O)[O-])([N+](=O)[O-])C1` [RRx-001, 2-bromo-1-(3,3-dinitroazetidin-1-yl)ethan-1-one], the “percent ulceration (mucositis score ≥3)” value in assay [1] (10 mg/kg, Groups 2 and 5, only dosed on Days −4, −1, and 1) was “best response in decreasing percent ulceration”. Besides, in assay [1] (3 and 1 mg/kg concentrations (Groups 4 vs. Group 7)), the “percent days of ulceration, twice weekly dosing vs dosing one time per week” value is listed as “more beneficial effects on percent days of ulceration”. Also, the “mean daily mucositis scores” value was “modest but significant enhancement of disease healing” in assay [1] (Group 2: 10 mg/kg IP, dosing terminated after Day 1, 40 Gy to left buccal cheek pouch); “tracked fairly close to each other, and with Vehicle dosed controls” in assay [1] (all other treatment groups (Groups 3-7: 1, 3 or 10 mg/kg IP)). Besides, the “percentage of days with a mucositis score of ≥3 in comparison to the Vehicle Group” value in assay [1] (Group 2: 10 mg/kg on Days −4, −1, 1, chi-square, p<0.01) is “statistically lower”. In addition, the “mucositis scores compared to the Vehicle control group” value in assay [1] (animals dosed with 1 mg/kg) and in assay [1] (animals dosed with 10 mg/kg) was “multiple days of significant improvement” throughout. In addition, the “SOD1 and 2 expression” value in assay [2] was “slight increase”. For the same molecule, the “bone marrow cellularity compared to the vehicle control” value in assay [3] (7 Gy TBI, 10 mg/kg IP 24 hours prior, day 7) is “slight increase in cellularity”. The “hematopoietic recovery as determined by the grade of bone marrow cellularity compared with control” value in assay [3] (7 Gy TBI, 10 mg/kg IP 24 hours prior, day 14) was “significantly accelerated hematopoietic recovery”. The number of megakaryocytes result in assay [3] (7 Gy TBI, 10 mg/kg IP, between days 7-28) was “steady increase”; in assay [3] (7 Gy TBI, 10 mg/kg IP, day 2), “reduced”; in assay [3] (7 Gy TBI, 10 mg/kg IP, day 7), “severely depleted”; in assay [3] (sham-irradiated, 10 mg/kg IP, day 14, vs vehicle control) it was “significantly higher than the vehicle control”. The “bone marrow cellularity grade” value in assay [3] (after irradiation (7 Gy TBI), 10 mg/kg IP 24 hours prior) is reported as 1 (grade 1: <10%); in assay [3] (sham-irradiated, 10 mg/kg IP, duration of the study (days 2-28)) it was 5 (grade 5: >90% cellularity). In addition, in assay [3] (sham-irradiated, 10 mg/kg IP, duration of the study), the “overall cellularity of the bone marrow” value is at least 90%. Also, the “Superoxide Dismutase Activity” value in assay [4] is listed as “did not increase”.
